Source: patent US20230181703A1, “COMPOSITION COMPRISING PEPSTATIN AND ALGINIC ACID OR A SALT THEREOF, AND USE THEREOF” (DRUGS MINERALS AND GENERICS ITALIA S.R.L. IN FORMA …, priority 2020, published 2023)
≈ marks a conversion by molar mass, not a printed value. Where a SMILES comes first, the peptide text is derived from it. [ ]: non-standard residue; d: D form. The star is where a group is joined. Sta = CC(C)C[C@H](N)[C@@H](O)CC(=O)O; Isovaleryl = CC(C)CC(=O)*

Key:
physchem = details: Solubility in ethanol (EtOH)
pepsin = molecular target: T1, pepsin (Sus scrofa, UniProt P00791); test: Enzymatic activity of pepsin (adapted Anson method, denatured haemoglobin substrate, absorbance at 280 nm); type: biochemical; details: for ΔAX at 280 nm: inhibitor 0.01% (suspension in H2O)
T1 construct: purchased BDH
Experimental: The method used to measure the enzymatic activity of pepsin alone or together with the inhibitory substance (pepstatin), consists of an adaptation of the Anson method [Anson et al, J. Gen. Physiol. 1931, 16, 59] which provides for the use of denatured haemoglobin as substrate. The enzymatic activity was determined after precipitation with trichloroacetic acid of the non-hydrolysed substrate. The activity of the enzyme was determined spectrophotometrically from the concentration of soluble peptides released by the proteolytic action.
T=37° C., pH=1,5, Anm, optical path 1 cm, reaction time 10 minutes. At pH=1.5, in which the experiments were conducted, there is a maximum activity of pepsin.
Haemoglobin 2%, pepsin 0,02%, inhibitor 0.01%.
Substrate: 250 mg of human haemoglobin are weighed in a 10 mL flask, it is brought up to volume with distilled water and left under stirring for 10 minutes in a water bath at 37° C. to obtain a solution 2.5%. The solution is passed through a filter paper to eliminate insoluble residues. 8 mL of the filtrate are taken and the volume is brought up to 10 mL with acidic water so as to have a final pH finale of 1.5 and a solution 2% (w/V).
Enzyme: 5 mg of pepsin are weighed in a 5 mL flask and it is brought up to volume with acidic water (pH=1.5).
Enzyme together with inhibitory substance: 5 mg of pepsin are weighed in a 5 mL flask. 0.5 mg/mL of a solution or suspension at pH=1.5 of the inhibitory substance are prepared separately (checking the pH with a pH meter and correcting it, if necessary, with hydrochloric acid 12 M in an amount such not to change the total volume). […]
0.25 mL of substrate (haemoglobin) are pipetted in a suitable vial and almost entirely submerged in a water bath thermostated at 37° C. It is left under magnetic stirring for 10 minutes at 37° C. 50 microlitres of the enzyme solution (pepsin) or of the enzyme together with the inhibitory substance (pepsin+pepstatin A) are then added and the system is kept under incubation for exactly 10 minutes. 0.5 mL of the trichloroacetic acid solution 5% are added after this period of time and then left for another 5 minutes. Exactly 3 mL of distilled water at pH=1.5 are added into the vial using a graduated pipette; the solution is stirred and filtered using a 0.45 μm syringe filter. An absorption spectrum (with absorbance (A) always below 1) with wavelengths comprised between 300 nm and 250 nm is recorded using a spectrophotometer using the absorbance value at 280 nm as reference.
Blank: 0.25 mL of substrate (haemoglobin) are pipetted in a suitable vial and almost entirely submerged in a water bath thermostated at 37° C. It is left under magnetic stirring for 10 minutes. 50 microlitres 0.5 mg/mL of the inhibitory substance solution (without enzyme) are then added and the system is kept under incubation for exactly 10 minutes. 0.5 mL of the trichloroacetic acid solution 5% are added after this period of time and then left for another 5 minutes.
50 microlitres of solution 1 mg/mL of enzyme without inhibitory substance are the introduced. Exactly 3 mL of distilled water at pH=1.5 are added into the vial using a graduated pipette, then the solution is stirred and filtered using a 0.45 μm syringe filter. An absorbance with wavelengths comprised between 300 nm and 250 nm is recorded using a spectrophotometer using the absorbance value at 280 nm as reference.
Each experiment was repeated at least twice. The final absorbance value (A) at 280 nm was the mean of the absorbance values obtained (with an uncertainty on the values always much lower than 10%). A ΔA, with ΔAx=A280sample substanceX−A280blank substance X and ΔAo=A280sample free pepsin−A280blank free pepsin in the event of absence of the inhibitory substance are associated with the pepsin-inhibiting substance. […]

T1 sequence (P00791 60-385): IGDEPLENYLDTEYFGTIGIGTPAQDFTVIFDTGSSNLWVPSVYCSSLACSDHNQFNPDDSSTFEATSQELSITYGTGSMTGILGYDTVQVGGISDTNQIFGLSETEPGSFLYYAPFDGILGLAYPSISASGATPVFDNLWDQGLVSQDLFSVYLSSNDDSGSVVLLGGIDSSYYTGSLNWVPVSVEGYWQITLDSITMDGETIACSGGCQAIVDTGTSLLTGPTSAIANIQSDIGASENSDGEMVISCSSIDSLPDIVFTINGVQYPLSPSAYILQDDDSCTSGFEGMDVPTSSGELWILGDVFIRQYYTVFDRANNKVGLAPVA

solubility (physchem): 1000 µg/mL (≈ 1460 µM)
ΔAX at 280 nm (pepsin; pepsin 0.02%, haemoglobin 2%, pH 1.5, 37° C., 10 minutes): 0
ΔAX at 280 nm (pepsin; pepsin 0.02%, haemoglobin 2%, pH 1.5, 37° C., 10 minutes, listed as Pepstatin): 0
ΔAX at 280 nm (pepsin; pepsin 0.02%, haemoglobin 2%, pH 1.5, 37° C., 10 minutes, listed as pepstatin): 0.004
Residual activity with respect to the maximum activity measured (pepsin; inhibitor 0.01%, pepsin 0.02%, haemoglobin 2%, pH 1.5, 37° C., 10 minutes): 0%
Activity of pepsin in the presence of pepstatin 1 μM (pepsin; pepstatin 1 μM diluted in H2O after dissolution in EtOH 1 mg/mL, added to haemoglobin 2% before pepsin, pH 1.5, 10 min (FIG. 3)): total abatement in the activity
Binding between the enzyme and the inhibitor (kinetics study) (pepsin; pepstatin 1 μM in haemoglobin 2%, time scale of the experiment t=10 minutes): immediate binding
Concentrations at which pepsin is inhibited / totally deactivated (pepsin; statement in Conclusions, no picomolar test described): picomolar concentrations
Structure (SMILES): CC(C)CC(=O)N[C@H](C(=O)N[C@H](C(=O)N[C@@H](CC(C)C)[C@@H](O)CC(=O)N[C@@H](C)C(=O)N[C@@H](CC(C)C)[C@@H](O)CC(=O)O)C(C)C)C(C)C [PEPSTATIN, Isovaleryl-L-val-L-val-statyl-L-alanyl-statin] (Isovaleryl-VV[Sta]A[Sta]-OH)
